From ChEMBL document CHEMBL5696442, “Discovery of type II inhibitors of TGFβ-activated kinase 1 (TAK1) and mitogen-activated protein kinase kinase kinase kinase 2 (MAP4K2)” (J Med Chem, 2015)

Experiments:
[1] = molecular target: T1, Inhibitor of nuclear factor kappa-B kinase subunit epsilon (Homo sapiens) (UniProt Q14164); assay: Inhibition of IKKe Lys1 labeling site in human A-375 cells at 5 uM by KiNativ Profiling analysis relative to control; format: cell-based
T1 sequence (whole entry): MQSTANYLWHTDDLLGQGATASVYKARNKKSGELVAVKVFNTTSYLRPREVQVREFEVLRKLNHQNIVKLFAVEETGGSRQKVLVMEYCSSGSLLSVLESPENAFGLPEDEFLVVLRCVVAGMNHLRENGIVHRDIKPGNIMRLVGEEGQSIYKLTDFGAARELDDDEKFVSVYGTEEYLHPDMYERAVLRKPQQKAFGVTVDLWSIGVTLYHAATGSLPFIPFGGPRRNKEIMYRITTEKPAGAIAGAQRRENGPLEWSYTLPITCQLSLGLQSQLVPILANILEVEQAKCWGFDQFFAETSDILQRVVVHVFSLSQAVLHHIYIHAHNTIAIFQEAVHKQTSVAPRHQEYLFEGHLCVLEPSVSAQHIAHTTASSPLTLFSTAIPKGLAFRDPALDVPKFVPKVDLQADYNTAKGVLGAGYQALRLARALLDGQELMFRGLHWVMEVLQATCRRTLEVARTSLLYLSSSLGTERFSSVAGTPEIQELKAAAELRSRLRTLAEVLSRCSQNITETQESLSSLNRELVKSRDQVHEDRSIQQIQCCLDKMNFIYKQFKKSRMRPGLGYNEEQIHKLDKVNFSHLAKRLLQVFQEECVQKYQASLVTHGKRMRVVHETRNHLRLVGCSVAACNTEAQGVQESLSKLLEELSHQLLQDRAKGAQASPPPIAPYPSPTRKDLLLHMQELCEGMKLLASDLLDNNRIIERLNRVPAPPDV

[2] = molecular target: Tyrosine-protein kinase JAK1 (Homo sapiens) (UniProt P23458); assay: Inhibition of JAK1 domain2 Lys1 labeling site in human A-375 cells at 0.05 uM by KiNativ Profiling analysis relative to control; format: cell-based
[3] = molecular target: Tyrosine-protein kinase CSK (Homo sapiens, UniProt P41240); assay: Inhibition of CSK ACT labeling site harbouring VSDFGLTKEASSTQDTGKLPVKWTAPEALR in human Huh-7 cells at 10 uM by KiNativ Profiling analysis relative to control; format: cell-based
[4] = molecular target: Cyclin-dependent kinase 13 (Homo sapiens) (UniProt Q14004); assay: Inhibition of CDC2L5 (unknown origin) at 1 uM by Ambit Kinomescan binding assay relative to control
[5] = molecular target: T2, Mitogen-activated protein kinase kinase kinase 5 (Homo sapiens) (UniProt Q99683); assay: Inhibition of ASK1 (unknown origin) at 1 uM by Ambit Kinomescan binding assay relative to control
T2 sequence (whole entry): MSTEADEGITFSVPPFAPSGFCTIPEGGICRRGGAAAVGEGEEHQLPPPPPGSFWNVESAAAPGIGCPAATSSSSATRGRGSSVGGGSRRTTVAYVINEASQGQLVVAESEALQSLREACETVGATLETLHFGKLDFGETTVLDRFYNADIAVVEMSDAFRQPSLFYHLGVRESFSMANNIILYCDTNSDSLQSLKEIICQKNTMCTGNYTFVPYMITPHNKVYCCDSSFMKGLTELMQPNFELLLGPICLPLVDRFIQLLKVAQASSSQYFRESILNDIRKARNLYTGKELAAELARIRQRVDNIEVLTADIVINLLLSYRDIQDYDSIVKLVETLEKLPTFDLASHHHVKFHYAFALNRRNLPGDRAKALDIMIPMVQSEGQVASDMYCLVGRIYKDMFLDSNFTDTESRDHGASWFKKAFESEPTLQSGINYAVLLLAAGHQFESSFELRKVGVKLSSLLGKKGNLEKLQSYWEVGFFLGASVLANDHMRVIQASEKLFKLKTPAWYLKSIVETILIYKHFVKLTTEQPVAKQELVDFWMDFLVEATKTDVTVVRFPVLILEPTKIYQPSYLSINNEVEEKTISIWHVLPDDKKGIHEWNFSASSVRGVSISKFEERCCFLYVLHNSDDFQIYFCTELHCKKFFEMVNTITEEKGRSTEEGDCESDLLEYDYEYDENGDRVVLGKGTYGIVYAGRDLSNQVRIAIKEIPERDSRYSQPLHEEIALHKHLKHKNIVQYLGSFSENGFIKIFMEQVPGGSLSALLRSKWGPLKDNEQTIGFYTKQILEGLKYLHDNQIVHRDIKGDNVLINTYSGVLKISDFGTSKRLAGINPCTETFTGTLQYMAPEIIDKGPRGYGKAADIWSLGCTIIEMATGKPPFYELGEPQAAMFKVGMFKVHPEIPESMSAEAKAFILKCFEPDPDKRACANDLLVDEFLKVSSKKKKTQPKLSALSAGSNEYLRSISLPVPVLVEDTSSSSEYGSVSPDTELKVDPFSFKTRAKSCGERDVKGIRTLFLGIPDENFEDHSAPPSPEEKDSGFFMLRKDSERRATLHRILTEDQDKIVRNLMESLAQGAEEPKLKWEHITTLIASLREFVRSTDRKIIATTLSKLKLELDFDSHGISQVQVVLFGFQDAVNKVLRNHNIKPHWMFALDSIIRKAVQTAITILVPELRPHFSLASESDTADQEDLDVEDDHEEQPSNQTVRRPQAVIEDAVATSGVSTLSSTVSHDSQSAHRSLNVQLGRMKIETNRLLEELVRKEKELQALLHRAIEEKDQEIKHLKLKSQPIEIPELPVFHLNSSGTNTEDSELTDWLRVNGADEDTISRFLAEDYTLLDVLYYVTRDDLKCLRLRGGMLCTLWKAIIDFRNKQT

Sequence of Tyrosine-protein kinase JAK1 (Homo sapiens) (P23458 whole entry, the tested form may be a part): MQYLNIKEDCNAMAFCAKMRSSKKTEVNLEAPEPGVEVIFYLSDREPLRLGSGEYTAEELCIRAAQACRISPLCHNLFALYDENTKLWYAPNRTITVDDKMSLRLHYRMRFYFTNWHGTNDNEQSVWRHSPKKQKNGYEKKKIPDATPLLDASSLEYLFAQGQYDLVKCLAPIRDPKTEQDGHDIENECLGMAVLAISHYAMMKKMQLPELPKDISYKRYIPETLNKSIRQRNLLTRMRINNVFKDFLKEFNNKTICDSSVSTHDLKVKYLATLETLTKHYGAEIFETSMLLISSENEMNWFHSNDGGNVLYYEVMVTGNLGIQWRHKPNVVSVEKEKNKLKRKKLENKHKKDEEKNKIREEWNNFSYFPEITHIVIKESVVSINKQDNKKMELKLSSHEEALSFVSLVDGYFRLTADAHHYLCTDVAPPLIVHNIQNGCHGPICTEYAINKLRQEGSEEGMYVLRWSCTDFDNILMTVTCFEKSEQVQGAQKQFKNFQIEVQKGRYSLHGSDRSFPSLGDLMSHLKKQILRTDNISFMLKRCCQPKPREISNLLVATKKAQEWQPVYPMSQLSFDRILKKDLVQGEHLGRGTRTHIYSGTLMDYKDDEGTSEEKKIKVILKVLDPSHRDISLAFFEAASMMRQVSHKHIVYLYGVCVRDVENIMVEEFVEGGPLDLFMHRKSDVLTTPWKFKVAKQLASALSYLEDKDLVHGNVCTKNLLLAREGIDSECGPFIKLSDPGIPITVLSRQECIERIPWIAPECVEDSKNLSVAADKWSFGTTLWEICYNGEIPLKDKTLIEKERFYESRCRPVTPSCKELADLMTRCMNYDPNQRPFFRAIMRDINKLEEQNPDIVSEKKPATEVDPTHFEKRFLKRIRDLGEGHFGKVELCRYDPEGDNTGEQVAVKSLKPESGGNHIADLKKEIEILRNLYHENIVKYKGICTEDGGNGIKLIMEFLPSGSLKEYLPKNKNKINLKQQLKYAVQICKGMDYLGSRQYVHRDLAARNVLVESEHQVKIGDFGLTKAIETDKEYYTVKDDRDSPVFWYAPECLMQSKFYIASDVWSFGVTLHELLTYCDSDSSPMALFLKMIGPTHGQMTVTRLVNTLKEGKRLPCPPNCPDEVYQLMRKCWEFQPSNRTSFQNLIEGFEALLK
Sequence of Tyrosine-protein kinase CSK (P41240 2-450 limits assumed): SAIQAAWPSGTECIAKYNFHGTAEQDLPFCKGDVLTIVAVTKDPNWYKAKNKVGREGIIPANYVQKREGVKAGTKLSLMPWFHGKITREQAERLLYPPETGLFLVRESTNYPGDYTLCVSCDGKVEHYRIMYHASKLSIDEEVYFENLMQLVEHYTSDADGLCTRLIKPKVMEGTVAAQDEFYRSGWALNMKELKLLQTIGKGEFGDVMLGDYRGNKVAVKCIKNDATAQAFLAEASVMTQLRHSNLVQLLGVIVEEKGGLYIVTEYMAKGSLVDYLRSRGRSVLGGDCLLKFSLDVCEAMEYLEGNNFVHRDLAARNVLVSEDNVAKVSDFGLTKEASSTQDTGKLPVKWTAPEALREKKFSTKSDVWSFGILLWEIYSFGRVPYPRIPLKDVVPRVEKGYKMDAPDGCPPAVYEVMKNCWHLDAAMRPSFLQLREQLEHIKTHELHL
Sequence of Cyclin-dependent kinase 13 (Homo sapiens) (Q14004 whole entry, looked up): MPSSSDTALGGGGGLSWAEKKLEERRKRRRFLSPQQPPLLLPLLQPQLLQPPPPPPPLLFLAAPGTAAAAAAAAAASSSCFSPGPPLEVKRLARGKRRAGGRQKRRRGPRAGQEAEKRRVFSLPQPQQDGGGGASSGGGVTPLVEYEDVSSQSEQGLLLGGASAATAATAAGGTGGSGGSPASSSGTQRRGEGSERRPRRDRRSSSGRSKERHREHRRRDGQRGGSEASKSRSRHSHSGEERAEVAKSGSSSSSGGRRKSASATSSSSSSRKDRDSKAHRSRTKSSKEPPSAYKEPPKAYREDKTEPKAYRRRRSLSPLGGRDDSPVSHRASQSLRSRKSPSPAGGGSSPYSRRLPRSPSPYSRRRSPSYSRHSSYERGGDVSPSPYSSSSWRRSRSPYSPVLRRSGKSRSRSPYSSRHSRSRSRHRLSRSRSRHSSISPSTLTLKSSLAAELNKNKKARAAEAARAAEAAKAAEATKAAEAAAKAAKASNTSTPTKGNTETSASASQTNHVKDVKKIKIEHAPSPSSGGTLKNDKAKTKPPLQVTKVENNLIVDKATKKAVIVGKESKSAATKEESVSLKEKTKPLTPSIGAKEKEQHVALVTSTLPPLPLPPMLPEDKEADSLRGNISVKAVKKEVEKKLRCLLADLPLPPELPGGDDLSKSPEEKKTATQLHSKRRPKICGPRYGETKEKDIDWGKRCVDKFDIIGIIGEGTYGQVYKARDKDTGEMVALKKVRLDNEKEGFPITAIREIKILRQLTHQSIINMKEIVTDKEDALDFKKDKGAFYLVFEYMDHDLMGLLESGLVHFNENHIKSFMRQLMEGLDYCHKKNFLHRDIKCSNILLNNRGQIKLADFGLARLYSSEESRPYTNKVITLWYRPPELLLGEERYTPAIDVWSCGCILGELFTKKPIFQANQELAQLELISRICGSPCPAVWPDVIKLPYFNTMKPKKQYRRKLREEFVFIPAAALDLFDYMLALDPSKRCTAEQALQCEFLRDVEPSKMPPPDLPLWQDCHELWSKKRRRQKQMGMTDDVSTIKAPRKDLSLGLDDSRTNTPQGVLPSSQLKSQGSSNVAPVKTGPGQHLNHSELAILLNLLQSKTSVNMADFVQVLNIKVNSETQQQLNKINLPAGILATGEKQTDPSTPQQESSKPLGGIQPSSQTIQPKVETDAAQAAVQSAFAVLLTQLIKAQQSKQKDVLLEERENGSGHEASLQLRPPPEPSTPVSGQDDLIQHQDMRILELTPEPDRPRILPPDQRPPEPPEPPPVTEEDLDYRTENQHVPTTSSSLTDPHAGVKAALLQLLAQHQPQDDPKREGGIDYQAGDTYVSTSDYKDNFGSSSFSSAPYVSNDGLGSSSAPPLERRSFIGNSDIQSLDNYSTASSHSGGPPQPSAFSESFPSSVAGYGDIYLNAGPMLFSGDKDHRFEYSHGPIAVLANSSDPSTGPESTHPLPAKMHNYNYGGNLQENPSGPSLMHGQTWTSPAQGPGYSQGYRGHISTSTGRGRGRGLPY

| SMILES | inhibition [1] | inhibition [2] | inhibition [3] | inhibition [4] | inhibition [5] |
| --- | --- | --- | --- | --- | --- |
| CCN1CCN(Cc2ccc(NC(=O)c3ccc(C)c(Oc4ccnc5[nH]ccc45)c3)cc2C(F)(F)F)CC1 | 0.8% | 17.4% | -2.7% |  |  |
| CCN1CCN(Cc2ccc(NC(=O)c3ccc(C)c(/C=C/c4cnc5[nH]ccc5c4OC)c3)cc2C(F)(F)F)CC1 |  |  |  | 100% | 100% |
